Inhibition and IC50 data for seven molecules are collected here from ChEMBL document CHEMBL1156943, “Toward the development of potent and selective bisubstrate inhibitors of protein arginine methyltransferases” (Bioorg Med Chem Lett, 2010).

Structures are written as SMILES.

Experiment [1] has as its target T1, Histone-lysine N-methyltransferase SETD7 (Homo sapiens) (UniProt Q8WTS6).
T1 sequence (whole entry): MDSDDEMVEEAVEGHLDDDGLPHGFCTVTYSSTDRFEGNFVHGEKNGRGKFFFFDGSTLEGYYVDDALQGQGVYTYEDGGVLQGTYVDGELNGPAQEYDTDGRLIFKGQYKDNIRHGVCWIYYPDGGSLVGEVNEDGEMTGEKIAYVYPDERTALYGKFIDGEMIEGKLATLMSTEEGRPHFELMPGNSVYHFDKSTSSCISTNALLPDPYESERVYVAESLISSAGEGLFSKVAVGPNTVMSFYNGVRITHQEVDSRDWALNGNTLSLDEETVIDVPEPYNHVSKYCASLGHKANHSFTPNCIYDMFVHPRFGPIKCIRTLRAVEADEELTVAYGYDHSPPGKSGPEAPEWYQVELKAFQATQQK
Description: Inhibition of GST-fused human recombinant SET7 at 100 uM after 90 mins by SDS-PAGE based scintillation counting.

The target in experiment [2] is T2, Protein arginine N-methyltransferase 1 (Homo sapiens, UniProt Q99873). Description: Inhibition of GST-fused human recombinant PRMT1 at 100 uM after 90 mins by SDS-PAGE based scintillation counting.
Target sequence in this assay (Q99873 whole entry, looked up, the tested form may be a part): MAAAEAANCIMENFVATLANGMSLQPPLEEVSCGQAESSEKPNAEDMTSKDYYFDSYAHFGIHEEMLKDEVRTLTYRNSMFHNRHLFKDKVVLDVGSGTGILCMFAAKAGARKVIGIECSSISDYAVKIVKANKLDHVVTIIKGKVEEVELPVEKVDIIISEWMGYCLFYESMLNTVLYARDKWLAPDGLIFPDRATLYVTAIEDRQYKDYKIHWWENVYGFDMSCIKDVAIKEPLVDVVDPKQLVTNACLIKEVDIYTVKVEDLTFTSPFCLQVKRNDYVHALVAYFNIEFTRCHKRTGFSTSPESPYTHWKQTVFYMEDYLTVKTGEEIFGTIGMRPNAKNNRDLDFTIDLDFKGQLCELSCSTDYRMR
Experiment [3] addresses T2, Protein arginine N-methyltransferase 1. Description: Inhibition of GST-fused human recombinant PRMT1 after 90 mins by SDS-PAGE based scintillation counting.
Target sequence in this assay (Q99873 whole entry, the tested form may be a part): as the sequence (Q99873 whole entry, looked up, the tested form may be a part) above
Experiment [4] deals with T3, Histone-lysine N-methyltransferase SETD7 (Homo sapiens, UniProt Q8WTS6).
T3 sequence (Q8WTS6 whole entry): T1 sequence (whole entry)
Description: Inhibition of GST-fused human recombinant SET7 after 90 mins by SDS-PAGE based scintillation counting.

As a reminder, the inhibition is how much of the control response was suppressed. The term IC50 denotes the point on the concentration scale where inhibition reaches its midpoint.

As to `C#CCN(CC[C@H](NC(=O)OC(C)(C)C)C(=O)OC(C)(C)C)C[C@H]1O[C@@H](n2cnc3c(N)ncnc32)[C@@H]2OC(C)(C)O[C@@H]21`, the figures for the inhibition in experiment [1] and in experiment [2] were 63% and 77%, respectively.

On to `N=C(N)NCCCCN(CC[C@H](N)C(=O)O)C[C@H]1O[C@@H](n2cnc3c(N)ncnc32)[C@H](O)[C@@H]1O`, for which the half-maximal inhibitory concentration (IC50) in experiment [3] is 2.9 µM. Also, the inhibition in experiment [1] came to 49%.

For the molecule `N=C(N)NCCn1cc(CN(CC[C@H](N)C(=O)O)C[C@H]2O[C@@H](n3cnc4c(N)ncnc43)[C@H](O)[C@@H]2O)nn1`, the inhibition in experiment [1] and in experiment [2] was greater than 50% in each case.

In the case of `N=C(N)NCCCCCN(CC[C@H](N)C(=O)O)C[C@H]1O[C@@H](n2cnc3c(N)ncnc32)[C@H](O)[C@@H]1O`, the inhibition in experiment [1] stood at 55%.

With `N=C(N)NCCCN(CC[C@H](N)C(=O)O)C[C@H]1O[C@@H](n2cnc3c(N)ncnc32)[C@H](O)[C@@H]1O`, in experiment [3], the IC50 was 6.2 µM. In addition, the inhibition in experiment [1] turned out to be 56.5%.

Turning to `C#CCN(CC[C@H](N)C(=O)O)C[C@H]1O[C@@H](n2cnc3c(N)ncnc32)[C@H](O)[C@@H]1O`, the inhibition was 75% in experiment [1] and 50% in experiment [2].

Take `Nc1ncnc2c1ncn2[C@@H]1O[C@H](C[C@@H](N)CC[C@H](N)C(=O)O)[C@@H](O)[C@H]1O` [SINEFUNGIN]: the IC50 in experiment [4] turned out to be 2.5 µM.
